Results reported in PubChem BioAssay AID1845217 (Molecular Pharmacology Branch, DTP, NCI, 2023).

System: VA-ES-BJ tumor spheroid viability
Test: Anticancer human tumor VA-ES-BJ cell line growth inhibition;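 note: spheroids exposed to compounds for seven days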;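 for viability, T/C: percent of DMSO vehicle control viability so 100% = untreated growth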
Settings: spheroids with HUVEC and MSC; for viability, T/C: stronger effect = lower value
Procedure, shortened: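 Single agents and combinations were tested on spheroids built from tumor cells plus HUVEC and hMSC, at half-log dilutions starting at or near clinical Cmax, else 10 microM; final DMSO 0.25% (v/v).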

[1] = curve of first compound, second compound 0.003 µM
[2] = curve of first compound, second compound 0.00949 µM
[3] = curve of first compound, second compound 0.03 µM
[4] = curve of first compound, second compound 0.0949 µM
[5] = curve of first compound, second compound 0.3 µM
[6] = second compound 0.003 µM, first compound 0.0316 µM
[7] = second compound 0.003 µM, first compound 0.1 µM
[8] = second compound 0.003 µM, first compound 0.316 µM
[9] = second compound 0.003 µM, first compound 1 µM
[10] = second compound 0.003 µM, first compound 3.16 µM
[11] = second compound 0.003 µM, first compound 10 µM
[12] = second compound 0.00949 µM, first compound 0.0316 µM
[13] = second compound 0.00949 µM, first compound 0.1 µM
[14] = second compound 0.00949 µM, first compound 0.316 µM
[15] = second compound 0.00949 µM, first compound 1 µM
[16] = second compound 0.00949 µM, first compound 3.16 µM
[17] = second compound 0.00949 µM, first compound 10 µM
[18] = second compound 0.03 µM, first compound 0.0316 µM
[19] = second compound 0.03 µM, first compound 0.1 µM
[20] = second compound 0.03 µM, first compound 0.316 µM
[21] = second compound 0.03 µM, first compound 1 µM
[22] = second compound 0.03 µM, first compound 3.16 µM
[23] = second compound 0.03 µM, first compound 10 µM
[24] = second compound 0.0949 µM, first compound 0.0316 µM
[25] = second compound 0.0949 µM, first compound 0.1 µM
[26] = second compound 0.0949 µM, first compound 0.316 µM
[27] = second compound 0.0949 µM, first compound 1 µM
[28] = second compound 0.0949 µM, first compound 3.16 µM
[29] = second compound 0.0949 µM, first compound 10 µM
[30] = second compound 0.3 µM, first compound 0.0316 µM
[31] = second compound 0.3 µM, first compound 0.1 µM
[32] = second compound 0.3 µM, first compound 0.316 µM
[33] = second compound 0.3 µM, first compound 1 µM
[34] = second compound 0.3 µM, first compound 3.16 µM
[35] = second compound 0.3 µM, first compound 10 µM

CNCc1ccc(-c2cc(-c3nc(-c4ccc(S(=O)(=O)C(C)C)cc4)cnc3N)on2)cc1 + CC[C@@]1(O)C(=O)OCc2c1cc1n(c2=O)Cc2cc3c(CN(C)C)c(O)ccc3nc2-1
IC50 [1]: 258 nM
IC50 [2]: 139 nM
IC50 [3]: < 9.49 nM
IC50 [4]: < 9.49 nM
IC50 [5]: < 9.49 nM
viability, T/C (second compound 0.003 µM, first compound 0.00949 µM): 90.9%
viability, T/C (second compound 0.003 µM, first compound 0.03 µM): 83%
viability, T/C (second compound 0.003 µM, first compound 0.0949 µM): 71.7%
viability, T/C (second compound 0.003 µM, first compound 0.3 µM): 49.4%
viability, T/C (second compound 0.003 µM, first compound 0.949 µM): 15.1%
viability, T/C (second compound 0.003 µM, first compound 3 µM): 6.06%
viability, T/C (second compound 0.00949 µM, first compound 0.00949 µM): 86.5%
viability, T/C (second compound 0.00949 µM, first compound 0.03 µM): 81.1%
viability, T/C (second compound 0.00949 µM, first compound 0.0949 µM): 59%
viability, T/C (second compound 0.00949 µM, first compound 0.3 µM): 30.7%
viability, T/C (second compound 0.00949 µM, first compound 0.949 µM): 12.4%
viability, T/C (second compound 0.00949 µM, first compound 3 µM): 4.37%
viability, T/C (second compound 0.03 µM, first compound 0.00949 µM): 42.3%
viability, T/C (second compound 0.03 µM, first compound 0.03 µM): 42.3%
viability, T/C (second compound 0.03 µM, first compound 0.0949 µM): 38.1%
viability, T/C (second compound 0.03 µM, first compound 0.3 µM): 27.9%
viability, T/C (second compound 0.03 µM, first compound 0.949 µM): 9.05%
viability, T/C (second compound 0.03 µM, first compound 3 µM): 3.26%
viability, T/C (second compound 0.0949 µM, first compound 0.00949 µM): 8.5%
viability, T/C (second compound 0.0949 µM, first compound 0.03 µM): 10%
viability, T/C (second compound 0.0949 µM, first compound 0.0949 µM): 13.8%
viability, T/C (second compound 0.0949 µM, first compound 0.3 µM): 10.3%
viability, T/C (second compound 0.0949 µM, first compound 0.949 µM): 5.27%
viability, T/C (second compound 0.0949 µM, first compound 3 µM): 2.78%
viability, T/C (second compound 0.3 µM, first compound 0.00949 µM): 4.36%
viability, T/C (second compound 0.3 µM, first compound 0.03 µM): 5.51%
viability, T/C (second compound 0.3 µM, first compound 0.0949 µM): 5.44%
viability, T/C (second compound 0.3 µM, first compound 0.3 µM): 4.99%
viability, T/C (second compound 0.3 µM, first compound 0.949 µM): 4.31%
viability, T/C (second compound 0.3 µM, first compound 3 µM): 3.27%

CC(C)n1c(=O)n(C)c2cnc3cc(F)c(-c4ccc(OCCCN5CCCCC5)nc4)cc3c21 + CC[C@@]1(O)C(=O)OCc2c1cc1n(c2=O)Cc2cc3c(CN(C)C)c(O)ccc3nc2-1
IC50 [1]: 3970 nM
IC50 [2]: < 31.6 nM
IC50 [3]: < 31.6 nM
IC50 [4]: < 31.6 nM
IC50 [5]: < 31.6 nM
viability, T/C [6]: 82.7%
viability, T/C [7]: 76%
viability, T/C [8]: 80%
viability, T/C [9]: 77.3%
viability, T/C [10]: 54.7%
viability, T/C [11]: 30.8%
viability, T/C [12]: 50.8%
viability, T/C [13]: 46.3%
viability, T/C [14]: 45.3%
viability, T/C [15]: 44.5%
viability, T/C [16]: 37.3%
viability, T/C [17]: 20.5%
viability, T/C [18]: 30.3%
viability, T/C [19]: 27.4%
viability, T/C [20]: 31.4%
viability, T/C [21]: 26.9%
viability, T/C [22]: 27.5%
viability, T/C [23]: 11.9%
viability, T/C [24]: 6.85%
viability, T/C [25]: 6.85%
viability, T/C [26]: 7.33%
viability, T/C [27]: 7.9%
viability, T/C [28]: 8.2%
viability, T/C [29]: 7.69%
viability, T/C [30]: 4.4%
viability, T/C [31]: 4.06%
viability, T/C [32]: 3.67%
viability, T/C [33]: 3.49%
viability, T/C [34]: 3.07%
viability, T/C [35]: 2.74%

[2H]c1nc(C)nc([2H])c1-c1cc(NC[C@@H](C)c2cccc3c(C(=O)NC)ccnc23)ncn1 + CC[C@@]1(O)C(=O)OCc2c1cc1n(c2=O)Cc2cc3c(CN(C)C)c(O)ccc3nc2-1
IC50 [1]: > 10000 nM
IC50 [2]: > 10000 nM
IC50 [3]: 203 nM
IC50 [4]: < 31.6 nM
IC50 [5]: < 31.6 nM
viability, T/C [6]: 101%
viability, T/C [7]: 95.9%
viability, T/C [8]: 99.5%
viability, T/C [9]: 100%
viability, T/C [10]: 105%
viability, T/C [11]: 100%
viability, T/C [12]: 90.1%
viability, T/C [13]: 90.6%
viability, T/C [14]: 90.6%
viability, T/C [15]: 92.4%
viability, T/C [16]: 87.3%
viability, T/C [17]: 81.6%
viability, T/C [18]: 53.3%
viability, T/C [19]: 48.2%
viability, T/C [20]: 49.9%
viability, T/C [21]: 50.2%
viability, T/C [22]: 46.4%
viability, T/C [23]: 46%
viability, T/C [24]: 9.76%
viability, T/C [25]: 8.96%
viability, T/C [26]: 7.7%
viability, T/C [27]: 8.02%
viability, T/C [28]: 8.96%
viability, T/C [29]: 8.01%
viability, T/C [30]: 6.31%
viability, T/C [31]: 6.82%
viability, T/C [32]: 5.89%
viability, T/C [33]: 5.88%
viability, T/C [34]: 5.82%
viability, T/C [35]: 5.63%

CC1COCCN1c1cc(-c2ccnn2C)c2ccnc(-c3ccn[nH]3)c2n1 (stereo not drawn) + CC[C@@]1(O)C(=O)OCc2c1cc1n(c2=O)Cc2cc3c(CN(C)C)c(O)ccc3nc2-1
IC50 [1]: 56.3 nM
IC50 [2]: < 31.6 nM
IC50 [3]: < 31.6 nM
IC50 [4]: < 31.6 nM
IC50 [5]: < 31.6 nM
viability, T/C [6]: 63.9%
viability, T/C [7]: 35.5%
viability, T/C [8]: 22.4%
viability, T/C [9]: 12.1%
viability, T/C [10]: 6.47%
viability, T/C [11]: 6.01%
viability, T/C [12]: 40.4%
viability, T/C [13]: 27.1%
viability, T/C [14]: 21.2%
viability, T/C [15]: 8.86%
viability, T/C [16]: 5.91%
viability, T/C [17]: 5.08%
viability, T/C [18]: 22.6%
viability, T/C [19]: 16.9%
viability, T/C [20]: 12.8%
viability, T/C [21]: 6.37%
viability, T/C [22]: 4.95%
viability, T/C [23]: 4.49%
viability, T/C [24]: 8.54%
viability, T/C [25]: 7.09%
viability, T/C [26]: 6.46%
viability, T/C [27]: 5.74%
viability, T/C [28]: 4.46%
viability, T/C [29]: 4.49%
viability, T/C [30]: 6.2%
viability, T/C [31]: 5.86%
viability, T/C [32]: 4.85%
viability, T/C [33]: 4.65%
viability, T/C [34]: 4.8%
viability, T/C [35]: 4.19%

COc1cc2c(cc1O)CCNC21CSC2c3c(OC(C)=O)c(C)c4c(c3C(COC1=O)N1C(O)C3Cc5cc(C)c(OC)c(O)c5C(C21)N3C)OCO4 (stereo not drawn)
viability, T/C (compound 0.000949 µM): 2.96% [middle of 10 runs]
viability, T/C (compound 0.003 µM): 1.18% [middle of 9 runs]
IC50 (compound alone, run of 12/12/2019): 0.256 nM [middle of 10 runs]
